Measured values taken from the NIST ThermoML archive (doi:10.1016/j.fluid.2008.03.004).

Key:
[1] = xn = mol fraction of the nth substance listed; conditions: 101 kPa, Liquid; for speed of sound: Sing-around technique in a fixed-path interferometer
[2] = 101 kPa, Liquid; for speed of sound: Sing-around technique in a fixed-path interferometer

Cc1ccc(C)cc1 [1,4-dimethylbenzene] + CCOC(C)(C)C
[1], x2 = 0
Conditions | mass density [kg/m3] | speed of sound [m/s]
288.15 K | 865.354 | 1347.9
290.65 K | 863.184 | 1336.9
293.15 K | 861.015 | 1326.1
295.65 K | 858.846 | 1315.6
298.15 K | 856.675 | 1305.4
300.65 K | 854.501 | 1295.3
303.15 K | 852.326 | 1285.4
305.65 K | 850.148 | 1275.6
308.15 K | 847.969 | 1266.1
310.65 K | 845.784 | 1256.4
313.15 K | 843.599 | 1246.8
315.65 K | 841.41 | 1237.6
318.15 K | 839.22 | 1228.1
320.65 K | 837.031 | 1220.5
323.15 K | 834.849 | 1211

Cc1ccc(C)cc1 [1,4-dimethylbenzene] + COC(C)(C)C
[1], x2 = 0
Conditions | mass density [kg/m3] | speed of sound [m/s]
288.15 K | 865.354 | 1347.9
290.65 K | 863.184 | 1336.9
293.15 K | 861.015 | 1326.1
295.65 K | 858.846 | 1315.6
298.15 K | 856.675 | 1305.4
300.65 K | 854.501 | 1295.3
303.15 K | 852.326 | 1285.4
305.65 K | 850.148 | 1275.6
308.15 K | 847.969 | 1266.1
310.65 K | 845.784 | 1256.4
313.15 K | 843.599 | 1246.8
315.65 K | 841.41 | 1237.6
318.15 K | 839.22 | 1228.1
320.65 K | 837.031 | 1220.5
323.15 K | 834.849 | 1211

CCOC(C)(C)C [2-ethoxy-2-methylpropane]
[2]
Conditions | mass density [kg/m3] | speed of sound [m/s]
288.15 K | 744.955 | 1076.4
290.65 K | 742.482 | 1065.1
293.15 K | 739.947 | 1053.7
295.65 K | 737.374 | 1042.2
298.15 K | 734.806 | 1031
300.65 K | 732.225 | 1019.8
303.15 K | 729.647 | 1008.6
305.65 K | 727.038 | 997.52
308.15 K | 724.443 | 986.39
310.65 K | 721.826 | 975.42
313.15 K | 719.179 | 964.53
315.65 K | 716.527 | 953.54
318.15 K | 713.96 | 942.67
320.65 K | 711.25 | 931.73
323.15 K | 708.642 | 920.73

COC(C)(C)C [2-methoxy-2-methylpropane]
[2]
Conditions | mass density [kg/m3] | speed of sound [m/s]
288.15 K | 744.861 | 1083.4
290.65 K | 742.259 | 1071.6
293.15 K | 739.654 | 1060
295.65 K | 737.036 | 1048.5
298.15 K | 734.406 | 1036.9
300.65 K | 731.766 | 1025.4
303.15 K | 729.112 | 1013.9
305.65 K | 726.444 | 1002.4
308.15 K | 723.763 | 990.99
310.65 K | 721.069 | 979.62
313.15 K | 718.357 | 968.16
315.65 K | 715.636 | 956.8
318.15 K | 712.897 | 945.54
320.65 K | 710.141 | 934.24
323.15 K | 707.381 | 922.97

COC(C)(C)C [2-methoxy-2-methylpropane] + Cc1cccc(C)c1
[1], x1 = 1
Conditions | mass density [kg/m3] | speed of sound [m/s]
288.15 K | 744.861 | 1083.4
290.65 K | 742.259 | 1071.6
293.15 K | 739.654 | 1060
295.65 K | 737.036 | 1048.5
298.15 K | 734.406 | 1036.9
300.65 K | 731.766 | 1025.4
303.15 K | 729.112 | 1013.9
305.65 K | 726.444 | 1002.4
308.15 K | 723.763 | 990.99
310.65 K | 721.069 | 979.62
313.15 K | 718.357 | 968.16
315.65 K | 715.636 | 956.8
318.15 K | 712.897 | 945.54
320.65 K | 710.141 | 934.24
323.15 K | 707.381 | 922.97

COC(C)(C)C [2-methoxy-2-methylpropane] + Cc1ccccc1C
[1], x1 = 1
Conditions | mass density [kg/m3] | speed of sound [m/s]
288.15 K | 744.861 | 1083.4
290.65 K | 742.259 | 1071.6
293.15 K | 739.654 | 1060
295.65 K | 737.036 | 1048.5
298.15 K | 734.406 | 1036.9
300.65 K | 731.766 | 1025.4
303.15 K | 729.112 | 1013.9
305.65 K | 726.444 | 1002.4
308.15 K | 723.763 | 990.99
310.65 K | 721.069 | 979.62
313.15 K | 718.357 | 968.16
315.65 K | 715.636 | 956.8
318.15 K | 712.897 | 945.54
320.65 K | 710.141 | 934.24
323.15 K | 707.381 | 922.97
